The values below come from PMC12299174, “Design, Synthesis, and Evaluation of 1-Benzylpiperidine and 1-Benzoylpiperidine Derivatives as Dual-Target Inhibitors of Acetylcholinesterase and Serotonin Transporter for Alzheimer′s Disease” (Molecules, 2025).

Where a name gives a salt, the structure may show the parent alone. Read-outs that look alike come from different tables or passages of the source. A value given as a limit tells only on which side of the number the result lay.

One assay addresses AChE (Homo sapiens, UniProt P22303). Nature of the assay: biochemical. Conditions: means ± SD of three determinations, 30 min preincubation at 25 °C, pH 7.5.
The target of the next assay is BuChE (Homo sapiens, UniProt P06276). The experiment in a line: biochemical.
Another assay concerns the target T1, h-SERT (Homo sapiens, UniProt P31645).
T1 construct: purchased Perkin-Elmer RBHSTM400UA; host or cells: HEK293 membranes
Nature of the assay: biochemical. The assay is classed as binding. Conditions: displacement of 2 nM [3H]-paroxetine, HEK293 membranes, Cheng-Prusoff. The procedure: Competitive binding studies were conducted on homogenized membranes prepared from the human clonal cell line HEK293 for h-SERT. […] The inhibitory activity on AChE or butyrylcholinesterase (BuChE), which has also been regarded as a relevant cholinesterase target in AD [23], was determined using the spectrophotometric method, as described by Ellman, modified from Mella (Section 3.3).
The cellular background HEK293 containing 400 µL of h-SERT (Code RBHSTM400UA, Perkin-Elmer, Santiago, Chile) was diluted in 12 Eppendorf tubes, containing a storage buffer solution of Tris-HCl 50 mM (pH 7.4), EDTA 0.5 mM, MgCl2 10 mM, and 10% sucrose, obtaining a final volume between 260 and 340 µL, which was finally stored at −80 °C [27]. […] Non-specific binding was determined using […] fluoxetine. After 30 min at 27 °C, the incubation was stopped by rapid filtration on a Whatman GF/C filter preabsorbed in 0.5% polyethylenimine (PEI), washed with cold working buffer solution, 3 × 3 mL, filtered, and scintillation liquid was added.

The test system of another assay is human AChE; h-AChE. Conditions: read-out: IC50 in human AChE (h-AChE); ref [14],[15],[16]; cited from earlier work.
The mark [1] stands for this setting: means ± SD of three determinations, 30 min preincubation at 25 °C, pH 7.5, read-out: BuChE IC50.

BuChE, sequence (P06276 29-602): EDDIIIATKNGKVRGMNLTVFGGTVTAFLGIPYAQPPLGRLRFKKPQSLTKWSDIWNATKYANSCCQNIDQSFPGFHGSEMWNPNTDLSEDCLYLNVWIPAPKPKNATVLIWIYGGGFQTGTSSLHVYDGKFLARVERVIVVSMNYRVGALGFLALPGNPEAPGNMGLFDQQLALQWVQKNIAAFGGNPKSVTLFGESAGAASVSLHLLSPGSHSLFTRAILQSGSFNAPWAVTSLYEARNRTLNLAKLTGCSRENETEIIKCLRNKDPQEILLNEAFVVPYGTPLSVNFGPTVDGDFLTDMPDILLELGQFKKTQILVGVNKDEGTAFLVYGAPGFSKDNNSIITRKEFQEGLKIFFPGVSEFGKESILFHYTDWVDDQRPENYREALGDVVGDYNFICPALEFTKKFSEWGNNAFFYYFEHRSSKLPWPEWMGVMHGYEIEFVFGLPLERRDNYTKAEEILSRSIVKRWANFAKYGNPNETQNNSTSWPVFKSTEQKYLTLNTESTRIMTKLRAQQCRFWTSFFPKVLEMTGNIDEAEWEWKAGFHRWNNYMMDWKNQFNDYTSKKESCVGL
T1 sequence (P31645 whole entry): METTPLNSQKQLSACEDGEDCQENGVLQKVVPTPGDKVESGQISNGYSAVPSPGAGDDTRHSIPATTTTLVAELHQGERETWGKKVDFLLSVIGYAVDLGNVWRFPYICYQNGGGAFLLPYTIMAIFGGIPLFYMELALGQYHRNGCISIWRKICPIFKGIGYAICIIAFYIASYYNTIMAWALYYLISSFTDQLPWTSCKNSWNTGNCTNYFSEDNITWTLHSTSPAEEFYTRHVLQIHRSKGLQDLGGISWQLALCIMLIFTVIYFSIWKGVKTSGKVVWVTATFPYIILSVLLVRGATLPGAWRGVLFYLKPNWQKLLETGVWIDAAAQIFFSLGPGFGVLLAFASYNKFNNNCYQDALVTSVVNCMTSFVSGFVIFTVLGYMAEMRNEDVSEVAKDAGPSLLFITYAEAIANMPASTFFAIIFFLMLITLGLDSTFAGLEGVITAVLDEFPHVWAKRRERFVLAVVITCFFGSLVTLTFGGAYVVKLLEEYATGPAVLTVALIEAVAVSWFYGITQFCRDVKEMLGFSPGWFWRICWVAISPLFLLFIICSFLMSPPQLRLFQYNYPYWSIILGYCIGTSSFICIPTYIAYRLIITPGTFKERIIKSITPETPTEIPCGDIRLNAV
AChE, sequence (P22303 32-614): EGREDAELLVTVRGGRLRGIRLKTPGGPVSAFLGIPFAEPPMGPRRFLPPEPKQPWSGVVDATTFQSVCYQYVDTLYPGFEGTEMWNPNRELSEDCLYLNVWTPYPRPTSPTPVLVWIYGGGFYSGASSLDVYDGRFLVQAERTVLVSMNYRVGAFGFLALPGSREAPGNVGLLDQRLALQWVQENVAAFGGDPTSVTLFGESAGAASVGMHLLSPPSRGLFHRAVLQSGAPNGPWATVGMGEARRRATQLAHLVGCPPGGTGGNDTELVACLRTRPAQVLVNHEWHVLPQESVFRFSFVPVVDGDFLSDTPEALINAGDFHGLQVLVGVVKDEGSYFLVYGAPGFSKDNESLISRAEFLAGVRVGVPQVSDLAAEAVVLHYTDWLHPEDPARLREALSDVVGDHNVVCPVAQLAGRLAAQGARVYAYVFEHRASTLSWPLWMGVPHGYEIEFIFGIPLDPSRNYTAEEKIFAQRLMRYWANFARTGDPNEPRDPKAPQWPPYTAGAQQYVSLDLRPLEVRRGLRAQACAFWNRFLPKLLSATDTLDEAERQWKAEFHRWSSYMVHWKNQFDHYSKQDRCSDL

`COc1cc2c(cc1OC)CN(C(=O)C1CCN(Cc3ccccc3)CC1)CC2` [Compound 7, (1-Benzylpiperidin-4-yl)(6,7-dimethoxy-3,4-dihydroisoquinolin-2(1H)-yl)methanone]: the concentration for half-maximal inhibition (IC50) was 34.4 ± 0.51 µM at AChE (read-out: AChE IC50) and more than 500 µM on BuChE (setting [1]). In addition, the inhibition constant (Ki) on h-SERT was more than 100 µM.
On to `COc1cc2c(cc1OC)CN(C(=O)C1CCN(Cc3cccc(F)c3)CC1)CC2` [Compound 8, (6,7-Dimethoxy-3,4-dihydroisoquinolin-2(1H)-yl)(1-(3-fluorobenzyl)piperidin-4-yl)methanone], for which the values for the IC50 at AChE (read-out: AChE IC50) and on BuChE (setting [1]) were 41.2 ± 3.17 µM and more than 500 µM, respectively. The compound further returned an inhibition constant (Ki) at h-SERT of more than 100 µM.
As for `COc1cc2c(cc1OC)CN(C(=O)C1CCN(Cc3cccc(Cl)c3)CC1)CC2` [Compound 9, (1-(3-Chlorobenzyl)piperidin-4-yl)(6,7-dimethoxy-3,4-dihydroisoquinolin-2(1H)-yl)methanone], the concentration for half-maximal inhibition (IC50) on AChE (read-out: AChE IC50) amounted to 34.5 ± 1.97 µM; at BuChE (setting [1]), 268 ± 13.8 µM. At h-SERT, this compound showed a Ki of more than 100 µM.
On to `COc1cc2c(cc1OC)CN(C(=O)C1CCN(Cc3cccc(Br)c3)CC1)CC2` [Compound 10, (1-(3-Bromobenzyl)piperidin-4-yl)(6,7-dimethoxy-3,4-dihydroisoquinolin-2(1H)-yl)methanone], for which the IC50 at AChE (read-out: AChE IC50) stood at 28.3 ± 0.87 µM; on BuChE (setting [1]) it was 426 ± 28.6 µM. This compound also yielded a Ki at h-SERT of more than 100 µM.
As for `COc1cc2c(cc1OC)CN(C(=O)C1CCN(Cc3ccc(Cl)cc3Cl)CC1)CC2` [Compound 11, (1-(2,4-Dichlorobenzyl)piperidin-4-yl)(6,7-dimethoxy-3,4-dihydroisoquinolin-2(1H)-yl)methanone], the 50% inhibitory concentration (IC50) on AChE (read-out: AChE IC50) and at BuChE (setting [1]) was more than 500 µM throughout. At h-SERT, this compound gave a Ki of more than 100 µM.
In the case of `COc1cc2c(cc1OC)CN(CC1CCN(C(=O)c3ccccc3)CC1)CC2` [Compound 12, (4-((6,7-Dimethoxy-3,4-dihydroisoquinolin-2(1H)-yl)methyl)piperidin-1-yl)(phenyl)methanone], the IC50 on AChE (read-out: AChE IC50) was 290 ± 10.9 µM; at BuChE (setting [1]), more than 500 µM. Further, the inhibitory constant (Ki) at h-SERT amounted to 2.62 ± 0.82 µM.
As for `COc1cc2c(cc1OC)CN(CC1CCN(C(=O)c3cccc(F)c3)CC1)CC2` [Compound 13, (4-((6,7-Dimethoxy-3,4-dihydroisoquinolin-2(1H)-yl)methyl)piperidin-1-yl)(3-fluorophenyl)methanone], the 50% inhibitory concentration (IC50) at AChE (read-out: AChE IC50) and at BuChE (setting [1]) was more than 500 µM in each case. At h-SERT, this compound registered a Ki of 1.91 ± 0.77 µM.
As for `COc1cc2c(cc1OC)CN(CC1CCN(C(=O)c3cccc(Cl)c3)CC1)CC2` [Compound 14, (3-Chlorophenyl)(4-((6,7-dimethoxy-3,4-dihydroisoquinolin-2(1H)-yl)methyl)piperidin-1-yl)methanone], the IC50 at AChE (read-out: AChE IC50) and at BuChE (setting [1]) was more than 500 µM each time. In addition, the Ki on h-SERT came to 2.43 ± 0.24 µM.
With `COc1cc2c(cc1OC)CN(CC1CCN(C(=O)c3cccc(Br)c3)CC1)CC2` [Compound 15, (3-Bromophenyl)(4-((6,7-dimethoxy-3,4-dihydroisoquinolin-2(1H)-yl)methyl)piperidin-1-yl)methanone], the IC50 on AChE (read-out: AChE IC50) is 242 ± 24.4 µM; on BuChE (setting [1]) it was more than 500 µM. At h-SERT, this compound had a Ki of 1.47 ± 0.73 µM.
Regarding `COc1cccc(C(=O)N2CCC(CN3CCc4cc(OC)c(OC)cc4C3)CC2)c1` [Compound 16, (4-((6,7-Dimethoxy-3,4-dihydroisoquinolin-2(1H)-yl)methyl)piperidin-1-yl)(3-methoxyphenyl)methanone], the IC50 at AChE (read-out: AChE IC50) was 439 ± 28 µM; on BuChE (setting [1]) it was more than 500 µM. For the same compound, the Ki on h-SERT stood at 1.59 ± 0.58 µM.
Turning to `O=C(Cc1ccccc1)OCC1CCN(Cc2ccccc2)CC1` [Compound 18, (1-Benzylpiperidin-4-yl)methyl-2-phenylacetate], the IC50 at AChE (AChE IC50 (µM)) is 200 ± 8.61 µM; against BuChE it was 256 ± 5.03 µM. For the same compound, the inhibitory constant (Ki) at h-SERT stood at 27.1 ± 3.4 µM.
Regarding `O=C(Cc1ccc(F)cc1)OCC1CCN(Cc2ccccc2)CC1` [Compound 19, (1-Benzylpiperidin-4-yl)methyl-2-(4-fluorophenyl)acetate], the half-maximal inhibitory concentration (IC50) at AChE (read-out: AChE IC50) worked out at 5.1 ± 0.24 µM; on BuChE (setting [1]), 26.8 ± 0.81 µM.
Consider `O=C(Cc1ccc(Cl)cc1)OCC1CCN(Cc2ccccc2)CC1` [Compound 20, (1-Benzylpiperidin-4-yl)methyl-2-(4-chlorophenyl)acetate], for which the concentration for half-maximal inhibition (IC50) at AChE (read-out: AChE IC50) was 259 ± 14.6 µM; on BuChE (setting [1]), more than 500 µM. Further, the inhibition constant Ki at h-SERT is more than 100 µM.
`O=C(OCC1CCN(Cc2ccccc2)CC1)C(c1ccccc1)c1ccccc1` [Compound 21, (1-Benzylpiperidin-4-yl)methyl-2,2-diphenylacetate]: the IC50 on AChE (read-out: AChE IC50) is more than 500 µM; on BuChE (setting [1]) it was 6.16 ± 0.29 µM. On h-SERT, the inhibition constant Ki stood at 25.5 ± 1.01 µM.
Taken in the same sequence, the figures for `O=C(OCC1CCN(Cc2ccccc2)CC1)c1ccc2ccccc2c1` [Compound 22, (1-Benzylpiperidin-4-yl)methyl-2-naphthoate] were 61.7 ± 2.56 µM, 59.3 ± 1.42 µM and 26.9 ± 2.57 µM.
`COc1ccc2c3c1O[C@H]1C[C@@H](O)C=C[C@@]31CCN(C)C2` [GAL, Galantamine hydrobromide]: the 50% inhibitory concentration (IC50) in the assay with human AChE; h-AChE is 18.6 µM.
